Among the data in PubChem BioAssay (NCI) are TGI and GI50 values, retold here.

Each structure is given as a SMILES string.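 Test compounds were applied to cells in 96-well plates for 48 hours at 5 doses. GI50: concentration for 50% inhibition of growth. The concentration for full growth arrest is given as TGI.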

Test systems include DMS 114 small cell lung; DMS 273 small cell lung; HOP-18 NSCLC; KM20L2 colon; LXFL 529 NSCLC; SNB-78 CNS; MDA-N; RXF-631 renal; XF 498 CNS; P388 leukemia; P388/ADR leukemia; SN12K1 renal.
Test in all cases: NCI tumour cell line growth inhibition, 48 h

As to `O=c1ncccn1C1OC(CO)C(O)C1O` (centres undefined), the TGI with DMS 114 small cell lung, in the assay with DMS 273 small cell lung, in the assay with HOP-18 NSCLC, in the assay on KM20L2 colon, in the assay with LXFL 529 NSCLC and in the assay with SNB-78 CNS was above 100 µM in each case.

Molecule `C=C1C(=O)OC2CC(C)C3CC(O)OC(OCC)C3(C)CC12` (centres undefined) displayed a TGI in the assay with MDA-N of 35.7 µM.

For `c1ccc2c(c1)oc1ccc3nsnc3c12`, the TGI with DMS 114 small cell lung, with DMS 273 small cell lung, with HOP-18 NSCLC, in the assay on KM20L2 colon, with LXFL 529 NSCLC and with RXF-631 renal was above 100 µM in each case.

As for `O=C(O)CCNCCCCNCCC(=O)O`, the TGI in the assay on DMS 273 small cell lung, in the assay on HOP-18 NSCLC, with KM20L2 colon, in the assay with LXFL 529 NSCLC and in the assay on XF 498 CNS was above 100 µM throughout.

In the assay on MDA-N, `c1ccc2c(c1)SCCCSCCSCCCS2` came in with a TGI above 100 µM.

As to `C=CCC1=C(C)C[C@@H]2CCC(=O)C=C12`, the TGI in the assay with DMS 114 small cell lung, in the assay on DMS 273 small cell lung, with LXFL 529 NSCLC, in the assay on RXF-631 renal and in the assay on SNB-78 CNS was above 100 µM throughout.

For the molecule `CC(C)CCCC(C)[C@H]1CCC2[C@@H]3CCC4Nc5c(cnn5-c5ccccc5)C[C@]4(C)C3CC[C@@]21C` (some centres undefined), the TGI with DMS 114 small cell lung was above 100 µM; with DMS 273 small cell lung, 8.08 µM; in the assay on HOP-18 NSCLC, above 100 µM; in the assay with KM20L2 colon it was above 100 µM; with LXFL 529 NSCLC it was above 100 µM; in the assay with RXF-631 renal it was 38.4 µM. The TGI with SNB-78 CNS and in the assay on XF 498 CNS was above 100 µM in each case.

As for `C=CCO/N=C(\OC(=O)c1ccc([N+](=O)[O-])cc1)c1ccccc1`, the TGI in the assay on DMS 114 small cell lung, in the assay on DMS 273 small cell lung, in the assay with HOP-18 NSCLC, in the assay with LXFL 529 NSCLC, in the assay on RXF-631 renal and in the assay on SNB-78 CNS was above 100 µM in each case.

In the assay with MDA-N, `CN(C)CCSS(=O)(=O)O` returned a TGI above 100 µM.

On to `C[Si](C)(C)/C=C\CCO`, for which the TGI in the assay on DMS 114 small cell lung, in the assay on DMS 273 small cell lung, in the assay on HOP-18 NSCLC, with KM20L2 colon, in the assay on LXFL 529 NSCLC and in the assay on RXF-631 renal was above 100 µM each time. The TGI in the assay on SNB-78 CNS and in the assay on XF 498 CNS was above 100 µM each time.

As to `CC(C)=CCC(OC(=O)C=C(C)C)C1=CC(=O)c2c(O)ccc(O)c2C1=O` (centres undefined), the TGI in the assay with DMS 114 small cell lung is 3.03 µM; in the assay on DMS 273 small cell lung it was 5.53 µM; in the assay on HOP-18 NSCLC, 7.58 µM; in the assay on KM20L2 colon it was 5.64 µM; in the assay with P388 leukemia, 2.77 µM; in the assay on P388/ADR leukemia it was 19.5 µM. Moreover, the TGI with SN12K1 renal is 2.93 µM; with SNB-78 CNS it was 5.88 µM; in the assay with XF 498 CNS it was 1.74 µM.

Consider `O=S(=O)(NCn1ccc2ccccc21)c1ccccc1`, for which the TGI in the assay on DMS 273 small cell lung, in the assay with HOP-18 NSCLC, with KM20L2 colon, in the assay on LXFL 529 NSCLC, in the assay on RXF-631 renal and with SNB-78 CNS was above 100 µM each time. Further, the TGI in the assay on XF 498 CNS was above 100 µM.

Take `CC1=Nc2ccccc2/C1=C\c1c(C)[nH]c2ccccc12`: the TGI in the assay on MDA-N amounted to 37.4 µM.

In the assay on MDA-N, `COc1cc(C)c(C2NC(=O)c3ccccc3N2)cc1C` (centres undefined) had a TGI of 0.128 µM.

Turning to `Cc1ccc(S(=O)(=O)c2ccccc2[N+](=O)[O-])cc1`, the TGI in the assay on DMS 114 small cell lung, with DMS 273 small cell lung, in the assay with KM20L2 colon, in the assay on LXFL 529 NSCLC, in the assay with RXF-631 renal and in the assay with SNB-78 CNS was above 100 µM throughout. The TGI in the assay on XF 498 CNS was above 100 µM.

For `Cc1cc(N(CCC#N)CCC#N)ccc1N=Nc1ccc(Br)cc1`, the TGI in the assay on DMS 114 small cell lung is above 71.3 µM; in the assay on DMS 273 small cell lung, above 31.6 µM; with HOP-18 NSCLC, above 100 µM; in the assay with KM20L2 colon, above 100 µM; in the assay on LXFL 529 NSCLC, above 100 µM; in the assay on RXF-631 renal, 25.1 µM. Further, the values for the TGI in the assay on SNB-78 CNS and in the assay on XF 498 CNS were above 65.8 µM and 13.3 µM, respectively.

`COC(=O)CC(NC(=O)OCc1ccccc1)C(C(=O)OCc1ccccc1)C(C)(OC)OC` (centres undefined): the TGI in the assay on DMS 114 small cell lung was 91.7 µM; in the assay on DMS 273 small cell lung, above 100 µM; in the assay with KM20L2 colon, above 100 µM; with LXFL 529 NSCLC, 57.2 µM; in the assay on XF 498 CNS, 37.3 µM.

In the case of `CC(=O)[O-].[Mn+3].[O-]c1ccccc1C=NCCNCCN=Cc1ccccc1[O-]`, the GI50 with DMS 273 small cell lung, with HOP-18 NSCLC, in the assay on LXFL 529 NSCLC and in the assay with SNB-78 CNS was above 100 µM each time. The TGI with DMS 273 small cell lung, with HOP-18 NSCLC, in the assay with LXFL 529 NSCLC and in the assay with SNB-78 CNS was above 100 µM in each case.

For `C1CC2CN(CCCN3CCOCC3)C(C1)O2` (centres undefined), in the assay on MDA-N, the TGI was above 100 µM.

As for `Cc1ccc(N=Nc2c(O)ccc3ccccc23)cc1`, the TGI with MDA-N was above 100 µM.

In the assay on MDA-N, `c1cncc(CNCc2cccnc2)c1` had a TGI above 100 µM.

In the case of `O=C1/C(=C/c2ccccc2)CN(C(=O)CCN2CCCC2)C/C1=C\c1ccccc1`, the TGI in the assay with DMS 114 small cell lung amounted to 4.66 µM; in the assay on DMS 273 small cell lung, 3.58 µM; in the assay with HOP-18 NSCLC, 9.09 µM; in the assay on KM20L2 colon it was 3.91 µM; with LXFL 529 NSCLC, 4.36 µM; in the assay on MDA-N, 1.46 µM. Moreover, the TGI in the assay with RXF-631 renal is 13.2 µM; in the assay on SNB-78 CNS, 16.5 µM; in the assay with XF 498 CNS, 16.8 µM.

As for `O=C1CC(c2[nH]nc3ccccc23)C(=O)N1c1ccccc1` (centres undefined), the TGI with DMS 114 small cell lung, in the assay with DMS 273 small cell lung, in the assay with HOP-18 NSCLC, in the assay with KM20L2 colon, with LXFL 529 NSCLC and in the assay on MDA-N was above 100 µM in each case. Also, the TGI in the assay with RXF-631 renal, in the assay with SNB-78 CNS and in the assay on XF 498 CNS was above 100 µM each time.
